Reference: patent publication US20080292571A1, “Deodorant composition with monocyclic, unsaturated sequiterpene alcohols and glyceryl monoalkyl ethers as synergistic active deodorant agents” (priority 2007, published 2008)

How the values were obtained:
[1] = 0.3% by weight ethylhexylglycerin in ethanol base deodorant vs 0.1% by weight triclosan; cited from earlier work
[2] = test system: odor-causing gram positive bacteria; conditions: as reported in U.S. Pat. No. 5,736,574; cited from earlier work
[3] = cited from earlier work
Staphylococcus = experiment: Anti-microbial test: microorganisms inoculated into gel formula, survivors counted; type: cell-based
Description: The antimicrobially synergistically effect of alpha Bisabolol (Natural) for glyceryl monoalkyl ether was studied and the results are summarized in Tables 15 and 16, below. […] Subsequently the steareth-100, sodium stearate, and stearyl alcohol were added and the mixture cooled. […] The final compositions were then poured into containers and cooled to room temperature. […] Therefore following formula is gel type. Inoculate test microorganisms to provide a suspension containing from […] microorganisms/ml and after 1 hr, 5 hr and 24 hr, check the surviving microorganisms by incubating in the soybean-casein digest agar for 24 hours at 32.5° C. the results are summarized below.

Compound	deodorant effectiveness compared with triclosan [1]	anti-microbial activity against odor-causing gram positive bacteria [2]	stability ([3]; e.g. against hydrolysis and elevated temperatures)	solubility in fats and organic solvents ([3]; fats and organic solvents like alcohols, glycols and glycol ethers)	solubility in water ([3]; water) [%]	anti-microbial activity (in words) (Staphylococcus; 0.2% by weight, with no ethylhexylglycerin)	effect on the anti-microbial activity of ethylhexylglycerin (Staphylococcus; alpha Bisabolol (Natural) combined with ethylhexylglycerin)
CCCCC(CC)COCC(O)CO (stereo not shown) [ethylhexylglycerin, Ethylhexylglycerin]	just as effective as 0.1% by weight triclosan	very low	rather stable	completely soluble	0.2	–	–
CC(C)=CCC[C@](C)(O)[C@@H]1CC=C(C)CC1 [alpha Bisabolol (Natural), alpha-Bisabolol]	–	–	–	–	–	no anti-microbial activity	synergistic effect
